Usually pIC50 stands for the IC50 on a negative log10 scale, so that one unit is a factor of ten. Usually pKi stands for −log10 of the Ki, conventionally taken in molar units.

From ChEMBL document CHEMBL1909046, “DrugMatrix in vitro pharmacology data” come the findings set out here.

Experiment [1] has as its target Kappa-type opioid receptor (Homo sapiens, UniProt P41145). As to the kind of experiment: DRUGMATRIX: Opiate kappa (OP2, KOP) radioligand binding (ligand: [3H] Diprenorphine). The note with it: Not Active = under 50% inhibition at 10 µM; for IC50: hek293. It is filed as cell membranes, HEK293, Membrane.
Experiment [2] has as its target Sodium-dependent dopamine transporter (Homo sapiens, UniProt Q01959). Briefly: DRUGMATRIX: Dopamine Transporter radioligand binding (ligand: [125I] RTI-55). It is filed as cell membranes, CHO-K1, Membrane. Particulars: Not Active = under 50% inhibition at 10 µM; for IC50: cho-k1; for pIC50: read-out: IC50; for pKi: read-out: Ki.
For experiment [3], the target named is T1, Alpha-2A adrenergic receptor (Homo sapiens, UniProt P08913). Further: in other assays of this panel Not Active means under 50% inhibition at 10 µM.
T1 sequence (P08913 whole entry): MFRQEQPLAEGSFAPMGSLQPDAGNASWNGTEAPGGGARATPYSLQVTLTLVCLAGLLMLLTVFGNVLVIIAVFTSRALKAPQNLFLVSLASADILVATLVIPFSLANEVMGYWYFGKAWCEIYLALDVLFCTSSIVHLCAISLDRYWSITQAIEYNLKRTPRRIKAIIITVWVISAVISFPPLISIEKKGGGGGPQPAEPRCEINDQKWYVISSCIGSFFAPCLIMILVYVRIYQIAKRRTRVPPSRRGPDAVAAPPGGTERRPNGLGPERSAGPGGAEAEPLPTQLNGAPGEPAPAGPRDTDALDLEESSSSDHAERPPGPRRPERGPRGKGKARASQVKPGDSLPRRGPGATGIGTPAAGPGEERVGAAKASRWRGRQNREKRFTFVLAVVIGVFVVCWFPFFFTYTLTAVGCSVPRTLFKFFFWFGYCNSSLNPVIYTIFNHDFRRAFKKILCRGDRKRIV
It is filed as cell membranes, Sf9, Membrane. The note with it: for IC50: sf9.

Experiment [4] has as its target Mu-type opioid receptor (Homo sapiens, UniProt P35372). As to the kind of experiment: DRUGMATRIX: Opiate mu (OP3, MOP) radioligand binding (ligand: [3H] Diprenorphine). It is filed as cell membranes, CHO-K1, Membrane. The note with it: Not Active = under 50% inhibition at 10 µM; for IC50: cho-k1.
The target in experiment [5] is Histamine H2 receptor (Homo sapiens, UniProt P25021). The format is cell membranes, CHO-K1, Membrane. Particulars: for IC50: cho-k1; for pIC50: read-out: IC50; for pKi: read-out: Ki. On all read-outs here: in other assays of this panel Not Active means under 50% inhibition at 10 µM.
Experiment [6] is described as follows: DRUGMATRIX: Interleukin IL-1 radioligand binding (ligand: [125I] interleukin 1beta). It is filed as cell membranes, Membrane. The note with it: nih3t3; Not Active = under 50% inhibition at 10 µM.

pIC50, pKi: −log10 of the molar value.

Kappa-type opioid receptor, sequence (P41145 whole entry): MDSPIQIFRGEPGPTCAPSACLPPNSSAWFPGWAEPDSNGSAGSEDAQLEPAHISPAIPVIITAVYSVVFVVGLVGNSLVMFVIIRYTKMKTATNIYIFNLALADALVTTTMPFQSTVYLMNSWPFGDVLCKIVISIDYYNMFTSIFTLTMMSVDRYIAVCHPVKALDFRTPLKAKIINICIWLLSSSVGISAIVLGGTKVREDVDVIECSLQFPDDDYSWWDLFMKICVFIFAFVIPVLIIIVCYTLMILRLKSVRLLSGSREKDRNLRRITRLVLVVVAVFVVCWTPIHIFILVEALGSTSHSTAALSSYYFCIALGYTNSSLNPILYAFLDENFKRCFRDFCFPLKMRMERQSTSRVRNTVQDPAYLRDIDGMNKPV
Mu-type opioid receptor, sequence (P35372 whole entry): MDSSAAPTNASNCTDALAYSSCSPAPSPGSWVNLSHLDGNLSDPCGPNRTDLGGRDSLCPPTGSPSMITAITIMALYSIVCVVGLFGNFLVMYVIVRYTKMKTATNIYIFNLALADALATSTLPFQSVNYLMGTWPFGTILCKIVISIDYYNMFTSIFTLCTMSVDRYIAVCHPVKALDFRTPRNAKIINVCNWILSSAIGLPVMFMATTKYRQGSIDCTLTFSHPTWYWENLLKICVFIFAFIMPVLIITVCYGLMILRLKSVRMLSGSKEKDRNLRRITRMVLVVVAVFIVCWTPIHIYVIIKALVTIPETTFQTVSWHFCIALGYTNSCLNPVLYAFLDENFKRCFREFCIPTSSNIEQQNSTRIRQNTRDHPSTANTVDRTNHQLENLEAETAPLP
Sodium-dependent dopamine transporter, sequence (Q01959 whole entry): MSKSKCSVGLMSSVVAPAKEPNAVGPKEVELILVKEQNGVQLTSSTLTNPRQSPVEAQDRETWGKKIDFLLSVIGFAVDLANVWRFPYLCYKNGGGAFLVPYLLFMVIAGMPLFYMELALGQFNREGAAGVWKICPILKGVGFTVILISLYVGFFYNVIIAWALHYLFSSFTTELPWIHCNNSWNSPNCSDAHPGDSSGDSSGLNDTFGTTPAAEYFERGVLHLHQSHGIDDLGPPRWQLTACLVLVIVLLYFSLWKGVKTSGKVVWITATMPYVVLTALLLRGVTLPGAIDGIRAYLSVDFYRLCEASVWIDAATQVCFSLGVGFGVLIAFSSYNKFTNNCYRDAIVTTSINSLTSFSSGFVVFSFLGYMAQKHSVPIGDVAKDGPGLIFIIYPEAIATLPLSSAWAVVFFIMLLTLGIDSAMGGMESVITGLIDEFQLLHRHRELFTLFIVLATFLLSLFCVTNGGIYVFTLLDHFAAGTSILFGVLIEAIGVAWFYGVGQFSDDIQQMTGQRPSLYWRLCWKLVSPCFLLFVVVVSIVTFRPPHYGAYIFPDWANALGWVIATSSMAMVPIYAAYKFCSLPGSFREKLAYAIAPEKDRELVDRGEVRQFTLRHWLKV
Histamine H2 receptor, sequence (P25021 whole entry): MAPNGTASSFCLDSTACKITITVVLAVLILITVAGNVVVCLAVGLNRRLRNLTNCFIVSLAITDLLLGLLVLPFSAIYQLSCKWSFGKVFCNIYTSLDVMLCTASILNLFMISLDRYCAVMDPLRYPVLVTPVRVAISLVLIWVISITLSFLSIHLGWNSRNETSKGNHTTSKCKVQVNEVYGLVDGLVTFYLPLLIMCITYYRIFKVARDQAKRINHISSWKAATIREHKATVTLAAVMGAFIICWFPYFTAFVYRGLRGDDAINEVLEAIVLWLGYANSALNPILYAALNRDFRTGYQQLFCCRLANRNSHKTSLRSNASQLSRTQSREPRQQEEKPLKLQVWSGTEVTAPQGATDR

`O=c1[nH]cnc2c1ncn2[C@H]1CC[C@@H](CO)O1` [DIDANOSINE]: the IC50 result in experiment [1], in experiment [2], in experiment [3], in experiment [4], in experiment [5] and in experiment [6] was “Not Active” throughout. Besides, the Ki result in experiment [6] is on record as “Not Active”.
Regarding `CCCCCCNC(=O)n1cc(F)c(=O)[nH]c1=O` [CARMOFUR], the IC50 result in experiment [1], in experiment [2], in experiment [3], in experiment [4], in experiment [5] and in experiment [6] was “Not Active” throughout. In experiment [6], the Ki result is reported as “Not Active”.
Take `C#C[C@]1(O)CC[C@H]2[C@@H]3CCC4=CC(=O)CC[C@@H]4[C@H]3CC[C@@]21C` [NORETHINDRONE]: the IC50 result in experiment [1], in experiment [2], in experiment [3], in experiment [4], in experiment [5] and in experiment [6] was “Not Active” in each case. The Ki result in experiment [6] is reported as “Not Active”.
With `Cl.NC[C@H]1CC[C@H](C(=O)Oc2ccc(CCC(=O)O)cc2)CC1` [CETRAXATE HYDROCHLORIDE], the IC50 entry in experiment [1], in experiment [2], in experiment [3], in experiment [4], in experiment [5] and in experiment [6] was “Not Active” throughout. Further, the Ki entry in experiment [6] is listed as “Not Active”.
As to `CC(C)Cn1cnc2c(N)nc3ccccc3c21` [IMIQUIMOD], the IC50 entry in experiment [1], in experiment [2], in experiment [3], in experiment [4] and in experiment [6] was “Not Active” each time. Also, the pIC50 in experiment [5] is 5.82. The pKi in experiment [5] is 5.83. In addition, the Ki result in experiment [6] is given as “Not Active”.
Consider `O=C1CN(/N=C/c2ccc([N+](=O)[O-])o2)C(=O)N1` [NITROFURANTOIN], for which the IC50 result in experiment [1], in experiment [2], in experiment [3], in experiment [4], in experiment [5] and in experiment [6] was “Not Active” throughout. Also, in experiment [6], the Ki result is listed as “Not Active”.
Regarding `Cc1c(N)nc([C@H](CC(N)=O)NC[C@H](N)C(N)=O)nc1C(=O)N[C@H](C(=O)N[C@H](C)[C@@H](O)[C@H](C)C(=O)N[C@H](C(=O)NCCc1nc(-c2nc(C(=O)NCCC[S+](C)C)cs2)cs1)[C@@H](C)O)[C@@H](O[C@@H]1O[C@@H](CO)[C@@H](O)[C@H](O)[C@@H]1O[C@H]1O[C@H](CO)[C@@H](O)[C@H](OC(N)=O)[C@@H]1O)c1c[nH]cn1.[Br-]` [BLEOMYCIN A2], the IC50 result in experiment [1], in experiment [2], in experiment [3], in experiment [4], in experiment [5] and in experiment [6] was “Not Active” in each case. Also, the Ki entry in experiment [6] was “Not Active”.
As for `CC(C)Cc1ccc([C@H](C)C(=O)O)cc1` [DEXIBUPROFEN], the IC50 result in experiment [1], in experiment [2], in experiment [3], in experiment [4], in experiment [5] and in experiment [6] was “Not Active” in each case. Also, in experiment [6], the Ki result was “Not Active”.
On to `NS(=O)(=O)c1cc(C(=O)O)c(NCc2ccco2)cc1Cl` [FUROSEMIDE], for which the IC50 result in experiment [1], in experiment [2], in experiment [3], in experiment [4], in experiment [5] and in experiment [6] was “Not Active” throughout. For the same molecule, the Ki result in experiment [6] is “Not Active”.
For `C[C@H]1C[C@H]2[C@@H]3CCC4=CC(=O)C=C[C@]4(C)[C@@]3(F)[C@@H](O)C[C@]2(C)[C@@]1(O)C(=O)CO` [BETAMETHASONE], the IC50 entry in experiment [1], in experiment [2], in experiment [3], in experiment [4], in experiment [5] and in experiment [6] was “Not Active” in each case. In addition, the Ki result in experiment [6] was “Not Active”.
With `COC(=O)C[C@](O)(CCC(C)(C)O)C(=O)O[C@@H]1C(OC)=C[C@]23CCCN2CCc2cc4c(cc2[C@H]13)OCO4` [HARRINGTONINE], the IC50 result in experiment [1], in experiment [2], in experiment [3], in experiment [4], in experiment [5] and in experiment [6] was “Not Active” throughout. In addition, the Ki entry in experiment [6] was “Not Active”.
Consider `CC(C)(c1ccc(O)cc1)c1ccc(O)cc1` [BISPHENOL A], for which the IC50 result in experiment [1], in experiment [3], in experiment [4], in experiment [5] and in experiment [6] was “Not Active” each time. In experiment [2], the pIC50 is 4.72. For the same molecule, the pKi in experiment [2] is 4.82. Moreover, the Ki entry in experiment [6] is on record as “Not Active”.
Turning to `CCN1CCN(C(=O)N[C@@H](C(=O)N[C@@H]2C(=O)N3[C@@H]2SC(C)(C)[C@@H]3C(=O)O)c2ccccc2)C(=O)C1=O` [PIPERACILLIN], the IC50 result in experiment [1], in experiment [2], in experiment [3], in experiment [4], in experiment [5] and in experiment [6] was “Not Active” throughout. The Ki result in experiment [6] is on record as “Not Active”.
`CC[C@H]1OC(=O)[C@H](C)[C@@H](O[C@H]2C[C@@](C)(OC)[C@@H](O)[C@H](C)O2)[C@H](C)[C@@H](O[C@@H]2O[C@H](C)C[C@H](N(C)C)[C@H]2O)[C@](C)(O)C[C@@H](C)C(=O)[C@H](C)[C@@H](O)[C@]1(C)O` [ERYTHROMYCIN]: the IC50 result in experiment [1], in experiment [2], in experiment [3], in experiment [4], in experiment [5] and in experiment [6] was “Not Active” throughout. Also, the Ki result in experiment [6] is given as “Not Active”.
With `NC(N)=Nc1nc(CSCCC(N)=NS(N)(=O)=O)cs1` [FAMOTIDINE], the IC50 result in experiment [1], in experiment [2], in experiment [3], in experiment [4] and in experiment [6] was “Not Active” throughout. In experiment [5], the pIC50 was 7.38. Also, the pKi in experiment [5] is 7.39. In addition, in experiment [6], the Ki entry is listed as “Not Active”.
For the molecule `CN(CCOc1ccc(C[C@H](Nc2ccccc2C(=O)c2ccccc2)C(=O)O)cc1)c1ccccn1`, the IC50 result in experiment [1], in experiment [3], in experiment [4], in experiment [5] and in experiment [6] was “Not Active” throughout. Besides, the pIC50 in experiment [2] is 4.87. The pKi in experiment [2] was 4.97. The Ki entry in experiment [6] is recorded as “Not Active”.
As for `COc1cc(NC(C)CCCN)c2ncccc2c1` (centres undefined) [PRIMAQUINE], the IC50 entry in experiment [1], in experiment [2], in experiment [3], in experiment [4], in experiment [5] and in experiment [6] was “Not Active” each time. Moreover, the Ki entry in experiment [6] is listed as “Not Active”.
As for `c1ccc2sc(SSc3nc4ccccc4s3)nc2c1` [BENZOTHIAZYL DISULFIDE], the pKi in experiment [1] was 6.30; in experiment [2] it was 6.71; in experiment [3] (read-out: Ki) it was 6.47; in experiment [4], 5.90. Further, the pIC50 in experiment [1] (read-out: IC50) was 5.91; in experiment [2], 6.61; in experiment [3] (read-out: IC50), 6.05; in experiment [4] (read-out: IC50) it was 5.51. In addition, the IC50 entry in experiment [5] and in experiment [6] was “Not Active” in each case. In experiment [6], the Ki entry is reported as “Not Active”.
